In US6204295A, “Antioxidant compounds” (Orion Corporation, priority 1996, dated 2001):
Where two headings read alike, the source gives them in different places.

Assays:
[1] = test system: lipid peroxidation in rat liver microsomes; experiment: Inhibition of ascorbate/ADP-FeCl3-induced lipid peroxidation in rat liver microsomes (TBA reactive material); format: biochemical, rat (Sprague-Dawley); conditions: rat liver microsomes 1.2 mg protein/ml, pH 6.0, 20 min at 37° C., read-out: IC50 values for the inhibition of microsomal lipid peroxidation, initiated by Ascorbate/ADP-FeCl3
Procedure: (§2) Adult male Sprague-Dawley rats were decapitated, and the liver was excised and chilled in ice-cold 0.25 M sucrose solution. A 20% (w/v) liver homogenate was prepared in the sucrose solution (0° C.) with a homogenizer. Microsomes were prepared from the postmitochondrial (12000×g for 10 min at 4° C.) supernatant fluid by centrifugation (105000×g for 10 min at 4° C.).
(§3) The antioxidant properties of the compounds were estimated by their potency to inhibit t-butylhydroperoxide (t-BuOOH) or ascorbate/ADP-FeCl3 -induced lipid peroxidation in rat liver microsomes in vitro. In the t-BuOOH assay the buffer (50 mM sodium carbonate, pH 10.2, with 0.1 mM EDTA) was pipetted in a volume of 0.8 ml in the luminometer cuvette. 20 μl of diluted rat liver microsomes (final concentration 1.5 μg protein/ml) was added, followed by 6 μl of luminol (0.5 mg/ml) and test compounds. The reaction was initiated by 0.05 ml of 0.9 mM t-BuOOH at 33° C. The chemiluminescence was measured for about 45 min and the area under the curve was calculated. In the ascorbate/ADP-FeCl3 assay microsomes (final concentration 1.2 mg protein/ml) in 20 mM phosphate buffer, including 90 mM KCl, were incubated for 20 min at 37° C. in the presence of ascorbate (0.5 mM final concentration; pH of the buffer 6.0), ADP and FeCl3 (final concentrations 0.85 and 0.05 mM, respectively) and test compounds. Total incubation volume was 0.5 ml. The incubation was stopped by addition of 0.5 ml of 30% trichloroacetic acid plus 0.05 ml 2% butylated hydroxytoluene in ethanol. The extent of lipid peroxidation was estimated by the amount of thiobarbituric acid (TBA) reactive material formed.
(§4) IC50 value means concentration of test compound that inhibits lipid peroxidation by 50%.

[2] = test system: lipid peroxidation in rat liver microsomes; experiment: Inhibition of t-butylhydroperoxide-induced lipid peroxidation in rat liver microsomes (luminol chemiluminescence); format: biochemical, rat (Sprague-Dawley); conditions: for IC50: t-BuOOH, rat liver microsomes 1.5 μg protein/ml, pH 10.2, 33° C., about 45 min, read-out: IC50 values for the inhibition of microsomal lipid peroxidation, initiated by t-Butylhydroperoxide; for antioxidant potency in the t-BuOOH test compared with butylated hydroxyanisole: in words, versus butylated hydroxyanisole
Procedure: as §2, §3, §4

[3] = biological target: T1, NADPH oxidase of the neutrophils (Homo sapiens, UniProt P04839); experiment: Inhibition of reactive oxygen production (oxidative burst) by PMA-activated neutrophils, luminol enhanced chemiluminescence; format: cell-based; conditions: for inhibition at 1000 µM: read-out: Inhibition of NADPH oxidase of the neutrophils at 1 mM
T1 construct: Neutrophils were isolated from 30 ml freshly drawn heparinized whole blood; endogenous in cells; host or cells: neutrophils isolated from freshly drawn heparinized whole blood
T1 sequence (P04839 2-570 limits assumed): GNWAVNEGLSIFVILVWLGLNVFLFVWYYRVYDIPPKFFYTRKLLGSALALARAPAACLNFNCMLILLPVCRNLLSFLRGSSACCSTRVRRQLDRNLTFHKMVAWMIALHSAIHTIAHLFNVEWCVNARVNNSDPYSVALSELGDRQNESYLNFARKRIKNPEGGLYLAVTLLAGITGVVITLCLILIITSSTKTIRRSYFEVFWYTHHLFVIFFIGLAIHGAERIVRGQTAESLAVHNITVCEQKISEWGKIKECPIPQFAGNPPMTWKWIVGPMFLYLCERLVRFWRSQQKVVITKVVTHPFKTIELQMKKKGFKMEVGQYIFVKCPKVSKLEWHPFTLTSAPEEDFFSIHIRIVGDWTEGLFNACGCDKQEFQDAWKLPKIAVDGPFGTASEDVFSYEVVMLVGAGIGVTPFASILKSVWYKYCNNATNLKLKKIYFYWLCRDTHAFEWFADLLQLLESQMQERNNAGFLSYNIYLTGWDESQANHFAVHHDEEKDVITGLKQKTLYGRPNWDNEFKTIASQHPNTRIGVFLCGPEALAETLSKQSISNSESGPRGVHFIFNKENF
T1 sequence (P13498 2-195 partner limits assumed): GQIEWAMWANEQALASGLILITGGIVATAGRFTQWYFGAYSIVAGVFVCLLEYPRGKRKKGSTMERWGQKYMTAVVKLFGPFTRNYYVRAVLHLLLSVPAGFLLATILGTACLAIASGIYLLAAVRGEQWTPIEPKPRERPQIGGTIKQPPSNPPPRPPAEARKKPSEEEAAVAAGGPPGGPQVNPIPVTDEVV
Procedure: Neutrophils were isolated from 30 ml freshly drawn heparinized whole blood, after dextran sedimentation of erythrocytes for 30 min. The leucocyte rich plasma was layered over an equal volume of Percoll (Sigma) and centrifuged at 400 g for 15 min. […] Neutrophils were washed with PBS (pH 7.1) and centrifuged at 200 g for 10 min. Cells were resuspended in fresh HBS (containing […], 0.4 g KCl, 0.06 g Na2 HPO4×2H2 O, 0.06 g KH2 PO4, 0.1 g MgSO4×7H2 O and 1 g glucose in 1000 ml of distilled water; pH adjusted to 7.4 by 7% NaHCO3) and counted before use.
One ml of cell suspension (final cell count 10^6 cells/ml) and the test compound was placed in cuvettes. Production of reactive oxygen by neutrophils ("oxidative burst") was stimulated by addition of phorbol-myristate-acetate (PMA; final concentration 2 μM). The luminol enhanced chemiluminescence was recorded.

[4] = test system: serum lipid peroxides (TBA-reactive material); experiment: In vivo serum lipid peroxides, TBA-reactive material; set-up: species or system rat (female Sprague-Dawley); conditions: rats; daily oral gavage 12 and 48 mg/kg; 2 days to 12 months; FIG. 2
Procedure: (§1) Test compound was given to six-week old female Sprague-Dawley rats daily by oral gavage at doses of 12 and 48 mg/kg for 12 months. The vehicle, carboxymethyl cellulose (0.5%), was given to control animals. Five rats per dose group were killed after 2 days, 5 weeks, 3, 6 and 12 months of dosing. Further groups were allowed to recover for 13 weeks without treatment after 6 and 12 months' dosing. The serum levels of lipid peroxides were measured by two different methods (diene conjugation and TBA-reactive material). For the measurement of diene conjugation, lipids extracted from serum samples (100 μl) by chloroform/methanol (2:1), dried under nitrogen and redissolved in cyclohexane, were analyzed spectrophotometrically (at 234 nm). For the analysis of TBA-reactive material serum samples (100 μl) were diluted in phosphate buffer and heated together with a TBA solution ([…]) in a boiling water bath for 15 min. The tubes were cooled, and the absorbances measured at 535 nm.

[5] = test system: serum lipid peroxides (diene conjugation); experiment: In vivo serum lipid peroxides, diene conjugation; set-up: species or system rat (female Sprague-Dawley); conditions: rats; daily oral gavage 12 and 48 mg/kg; 2 days to 12 months; FIG. 1
Procedure: as §1

[6] = PMA 2 μM, 10^6 cells/ml, read-out: IC50, inhibition of NADPH oxidase of the neutrophils

Compound | IC50 [1] | IC50 [2] | inhibition at 1000 µM ([3]; 1 mM, PMA 2 μM, 10^6 cells/ml) | further results
COc1ccc(O)c(C(C)(C)C)c1 [butylated hydroxyanisole] | 0.2 µM | 1.1 µM |  | 
CN(C)CCOc1ccc(/C(=C(/CCI)c2ccccc2)c2ccccc2)cc1 [Compound 4, 4-iodo-1,2-diphenyl-1-[4-[2-(N,N-dimethylamino)ethoxy]phenyl]-1-butene] | 3 µM | 0.38 µM | > 99% | IC50 [3, 6]: 2.32 µM; antioxidant potency in the t-BuOOH test compared with butylated hydroxyanisole [2]: even stronger than that of the known synthetic antioxidant butylated hydroxyanisole
CNCCOc1ccc(/C(=C(/CCCl)c2ccccc2)c2ccc(O)cc2)cc1 [Compound 3, 4-chloro-1-(4-hydroxyphenyl)-1-[4-[2-(N-methylamino)ethoxy]phenyl]-2-phenyl-1-butene] | 31 µM | 27 µM |  | 
C[C@]12CC[C@@H]3c4ccc(O)cc4CC[C@H]3[C@@H]1CC[C@@H]2O [17β-estradiol] | 300 µM | 4.6 µM |  | Inhibition of NADPH oxidase of the neutrophils at 1 mM ([3]; 1 mM, PMA 2 μM, 10^6 cells/ml): no effect
Cc1c(C)c2c(c(C)c1O)CCC(C)(C(=O)O)O2 (stereo not shown) [Trolox] |  |  | 59% | Inhibition of NADPH oxidase of the neutrophils at 1 mM ([3]; 1 mM, PMA 2 μM, 10^6 cells/ml): no effect
CC/C(=C(/CC)c1ccc(O)cc1)c1ccc(O)cc1 [diethylstilbestrol] |  |  |  | IC50 [3]: 8 µM; inhibition at 1000 µM [3]: > 99%
CN(C)CCOc1ccc(/C(=C(/CCCl)c2ccccc2)c2ccccc2)cc1 [Compound 1, 4-chloro-1,2-diphenyl-1-[4-[2-(N,N-dimethylamino)ethoxy]phenyl]-1-butene] | 18 µM | 450 µM |  | IC50 [3]: 2.17 µM; inhibition at 1000 µM [3]: > 99%; effect on serum TBA-reactive material [4]: effective in decreasing both diene conjugation and TBA-reactive material in rats; effect on serum diene conjugation [5]: effective in decreasing both diene conjugation and TBA-reactive material in rats
Cc1c(C)c2c(c(C)c1O)CCC(C)(CCCC(C)CCCC(C)CCCC(C)C)O2 (stereo not drawn) [α-tocopherol] | 43 µM | 2 µM |  | 
CN(C)CCOc1ccc(/C(=C(/CCCl)c2ccccc2)c2ccc(O)cc2)cc1 [Compound 2, 4-chloro-1-(4-hydroxyphenyl)-1-[4-[2-(N,N-dimethylamino)ethoxy]phenyl]-2-phenyl-1-butene] | 8 µM | 0.18 µM | > 99% | IC50 [3, 6]: 2.12 µM; antioxidant potency in the t-BuOOH test compared with butylated hydroxyanisole [2]: even stronger than that of the known synthetic antioxidant butylated hydroxyanisole
CN(C)CCOc1ccc(/C(=C(\CCCl)c2ccccc2)c2ccccc2)cc1 [Compound 5, 4-chloro-1,2-diphenyl-1-[4-[2-(N,N-dimethylamino)ethoxy]phenyl]-1-butene] | 36 µM | 410 µM |  | 
